Experimental data published in ChEMBL document CHEMBL5291721, “A preclinical secondary pharmacology resource illuminates target-adverse drug reaction associations of marketed drugs” (Nat Commun, 2023).

Tests used:
[1] = target: Gamma-aminobutyric acid receptor subunit alpha-1 (Rattus norvegicus, UniProt P62813); format: functional
[2] = target: T1, 5-hydroxytryptamine receptor 2C (Homo sapiens, UniProt P28335)
T1 sequence (P28335 whole entry): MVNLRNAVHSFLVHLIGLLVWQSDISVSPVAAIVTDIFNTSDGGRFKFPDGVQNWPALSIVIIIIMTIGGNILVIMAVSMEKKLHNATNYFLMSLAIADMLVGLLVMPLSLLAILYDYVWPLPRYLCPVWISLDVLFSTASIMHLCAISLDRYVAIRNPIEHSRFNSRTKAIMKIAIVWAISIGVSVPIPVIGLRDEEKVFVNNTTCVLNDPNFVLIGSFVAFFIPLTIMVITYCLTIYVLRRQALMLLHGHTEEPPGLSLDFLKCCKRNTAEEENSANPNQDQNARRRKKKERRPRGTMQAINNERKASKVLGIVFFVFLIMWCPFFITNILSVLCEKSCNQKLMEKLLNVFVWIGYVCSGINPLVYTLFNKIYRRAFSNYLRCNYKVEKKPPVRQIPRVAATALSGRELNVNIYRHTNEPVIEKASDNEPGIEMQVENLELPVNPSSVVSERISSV

[3] = target: Growth hormone secretagogue receptor type 1 (Homo sapiens, UniProt Q92847)
Chain of Growth hormone secretagogue receptor type 1 (Q92847 whole entry): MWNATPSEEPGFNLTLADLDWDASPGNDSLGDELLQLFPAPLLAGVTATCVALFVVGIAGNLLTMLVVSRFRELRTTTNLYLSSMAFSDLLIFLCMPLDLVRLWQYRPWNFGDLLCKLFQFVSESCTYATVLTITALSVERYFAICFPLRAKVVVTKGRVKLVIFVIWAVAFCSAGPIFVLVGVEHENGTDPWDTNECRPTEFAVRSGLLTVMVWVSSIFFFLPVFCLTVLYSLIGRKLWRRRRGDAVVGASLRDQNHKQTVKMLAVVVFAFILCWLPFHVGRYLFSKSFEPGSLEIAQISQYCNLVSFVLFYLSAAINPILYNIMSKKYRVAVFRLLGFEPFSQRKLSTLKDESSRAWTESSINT

[4] = target: Voltage-gated inwardly rectifying potassium channel KCNH2 (Homo sapiens, UniProt Q12809); format: functional; conditions: read-out: AC50
Chain of Voltage-gated inwardly rectifying potassium channel KCNH2 (Q12809 whole entry): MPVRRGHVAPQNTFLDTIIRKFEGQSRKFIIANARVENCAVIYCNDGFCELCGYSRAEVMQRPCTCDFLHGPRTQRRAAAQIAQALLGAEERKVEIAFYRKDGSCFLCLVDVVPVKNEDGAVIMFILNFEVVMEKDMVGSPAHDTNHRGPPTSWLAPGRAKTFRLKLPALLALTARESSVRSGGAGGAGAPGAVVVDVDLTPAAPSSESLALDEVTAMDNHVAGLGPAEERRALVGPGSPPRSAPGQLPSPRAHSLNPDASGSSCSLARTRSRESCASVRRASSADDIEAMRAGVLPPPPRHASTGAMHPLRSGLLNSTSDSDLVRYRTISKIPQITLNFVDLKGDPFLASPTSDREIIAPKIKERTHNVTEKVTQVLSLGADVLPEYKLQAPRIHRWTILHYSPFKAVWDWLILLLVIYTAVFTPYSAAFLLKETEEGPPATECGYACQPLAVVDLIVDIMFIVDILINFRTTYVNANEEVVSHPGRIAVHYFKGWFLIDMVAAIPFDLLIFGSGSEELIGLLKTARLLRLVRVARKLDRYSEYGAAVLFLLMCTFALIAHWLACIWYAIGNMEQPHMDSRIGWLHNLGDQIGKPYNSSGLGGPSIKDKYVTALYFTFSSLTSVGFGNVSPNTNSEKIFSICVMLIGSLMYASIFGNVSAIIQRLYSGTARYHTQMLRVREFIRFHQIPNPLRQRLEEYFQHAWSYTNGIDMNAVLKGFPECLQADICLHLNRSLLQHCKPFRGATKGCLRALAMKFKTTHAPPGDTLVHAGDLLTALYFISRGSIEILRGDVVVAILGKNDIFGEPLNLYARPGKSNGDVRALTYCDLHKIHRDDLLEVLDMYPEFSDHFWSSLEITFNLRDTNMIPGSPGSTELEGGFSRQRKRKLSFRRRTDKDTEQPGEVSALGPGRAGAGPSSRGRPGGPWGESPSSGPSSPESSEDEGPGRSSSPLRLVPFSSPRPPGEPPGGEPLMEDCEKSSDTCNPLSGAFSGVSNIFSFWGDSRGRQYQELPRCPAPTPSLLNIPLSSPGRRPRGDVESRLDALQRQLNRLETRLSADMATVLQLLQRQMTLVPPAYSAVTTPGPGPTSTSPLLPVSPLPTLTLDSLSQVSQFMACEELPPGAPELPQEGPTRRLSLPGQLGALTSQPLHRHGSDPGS

[5] = target: T2, 5-hydroxytryptamine receptor 1A (Homo sapiens, UniProt P08908); format: functional, cell-based
T2 sequence (P08908 whole entry): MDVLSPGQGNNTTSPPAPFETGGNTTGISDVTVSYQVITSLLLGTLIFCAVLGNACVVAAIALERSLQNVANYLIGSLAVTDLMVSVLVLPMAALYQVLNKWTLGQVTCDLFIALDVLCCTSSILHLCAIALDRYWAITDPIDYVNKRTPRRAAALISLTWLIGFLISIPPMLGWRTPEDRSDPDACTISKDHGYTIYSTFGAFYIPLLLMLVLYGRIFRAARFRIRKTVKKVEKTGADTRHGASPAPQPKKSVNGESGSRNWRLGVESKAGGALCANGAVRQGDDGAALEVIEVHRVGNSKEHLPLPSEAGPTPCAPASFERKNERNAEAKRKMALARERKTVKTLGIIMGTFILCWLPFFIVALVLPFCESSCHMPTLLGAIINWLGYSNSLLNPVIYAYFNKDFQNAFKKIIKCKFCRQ

[6] = target: T3, Amine oxidase [flavin-containing] A (Homo sapiens, UniProt P21397); format: functional
T3 sequence (P21397 whole entry): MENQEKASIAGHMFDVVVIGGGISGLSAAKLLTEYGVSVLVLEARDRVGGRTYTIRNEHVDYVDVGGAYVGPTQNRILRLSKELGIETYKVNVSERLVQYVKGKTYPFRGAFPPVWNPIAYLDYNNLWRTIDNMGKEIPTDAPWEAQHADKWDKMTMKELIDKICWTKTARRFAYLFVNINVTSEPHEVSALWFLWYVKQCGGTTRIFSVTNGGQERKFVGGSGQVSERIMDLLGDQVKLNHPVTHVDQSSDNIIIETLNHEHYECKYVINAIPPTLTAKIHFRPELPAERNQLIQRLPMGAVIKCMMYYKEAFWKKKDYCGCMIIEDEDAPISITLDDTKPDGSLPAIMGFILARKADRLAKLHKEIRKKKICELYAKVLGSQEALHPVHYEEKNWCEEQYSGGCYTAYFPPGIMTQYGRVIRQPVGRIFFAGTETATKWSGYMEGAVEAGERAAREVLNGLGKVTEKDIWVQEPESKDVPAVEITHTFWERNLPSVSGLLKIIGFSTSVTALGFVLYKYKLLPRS

[7] = target: T4, Alpha-2A adrenergic receptor (Homo sapiens, UniProt P08913); format: functional, cell-based
T4 sequence (P08913 whole entry): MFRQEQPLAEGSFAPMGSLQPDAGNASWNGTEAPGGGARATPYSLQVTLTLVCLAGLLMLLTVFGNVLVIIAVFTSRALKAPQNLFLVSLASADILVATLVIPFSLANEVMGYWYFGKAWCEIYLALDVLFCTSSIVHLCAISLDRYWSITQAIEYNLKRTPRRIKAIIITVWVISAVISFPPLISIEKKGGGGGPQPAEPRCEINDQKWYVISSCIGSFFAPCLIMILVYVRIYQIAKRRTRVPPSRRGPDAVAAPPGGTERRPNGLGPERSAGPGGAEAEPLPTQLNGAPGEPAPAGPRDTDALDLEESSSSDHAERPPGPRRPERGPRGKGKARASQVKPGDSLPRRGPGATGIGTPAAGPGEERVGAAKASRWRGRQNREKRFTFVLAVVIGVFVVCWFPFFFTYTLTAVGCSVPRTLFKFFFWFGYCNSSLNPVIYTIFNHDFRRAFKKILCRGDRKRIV

[8] = target: T5, Muscarinic acetylcholine receptor M2 (Homo sapiens, UniProt P08172); format: functional, cell-based
T5 sequence (P08172 whole entry): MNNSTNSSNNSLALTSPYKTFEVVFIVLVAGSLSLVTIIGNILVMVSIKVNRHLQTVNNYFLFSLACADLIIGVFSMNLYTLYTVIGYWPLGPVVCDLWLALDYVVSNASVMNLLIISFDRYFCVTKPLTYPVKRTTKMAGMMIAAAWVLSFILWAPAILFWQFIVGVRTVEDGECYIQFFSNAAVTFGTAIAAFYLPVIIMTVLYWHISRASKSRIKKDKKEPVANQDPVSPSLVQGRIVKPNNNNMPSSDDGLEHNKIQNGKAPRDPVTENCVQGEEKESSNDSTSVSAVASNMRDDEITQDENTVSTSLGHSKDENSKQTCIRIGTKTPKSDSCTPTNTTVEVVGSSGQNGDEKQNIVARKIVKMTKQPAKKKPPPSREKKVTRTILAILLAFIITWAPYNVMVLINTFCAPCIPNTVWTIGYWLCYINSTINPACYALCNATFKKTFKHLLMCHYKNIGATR

[9] = target: 3',5'-cyclic-AMP phosphodiesterase 4D (Homo sapiens, UniProt Q08499); format: functional
Chain of 3',5'-cyclic-AMP phosphodiesterase 4D (Q08499 whole entry): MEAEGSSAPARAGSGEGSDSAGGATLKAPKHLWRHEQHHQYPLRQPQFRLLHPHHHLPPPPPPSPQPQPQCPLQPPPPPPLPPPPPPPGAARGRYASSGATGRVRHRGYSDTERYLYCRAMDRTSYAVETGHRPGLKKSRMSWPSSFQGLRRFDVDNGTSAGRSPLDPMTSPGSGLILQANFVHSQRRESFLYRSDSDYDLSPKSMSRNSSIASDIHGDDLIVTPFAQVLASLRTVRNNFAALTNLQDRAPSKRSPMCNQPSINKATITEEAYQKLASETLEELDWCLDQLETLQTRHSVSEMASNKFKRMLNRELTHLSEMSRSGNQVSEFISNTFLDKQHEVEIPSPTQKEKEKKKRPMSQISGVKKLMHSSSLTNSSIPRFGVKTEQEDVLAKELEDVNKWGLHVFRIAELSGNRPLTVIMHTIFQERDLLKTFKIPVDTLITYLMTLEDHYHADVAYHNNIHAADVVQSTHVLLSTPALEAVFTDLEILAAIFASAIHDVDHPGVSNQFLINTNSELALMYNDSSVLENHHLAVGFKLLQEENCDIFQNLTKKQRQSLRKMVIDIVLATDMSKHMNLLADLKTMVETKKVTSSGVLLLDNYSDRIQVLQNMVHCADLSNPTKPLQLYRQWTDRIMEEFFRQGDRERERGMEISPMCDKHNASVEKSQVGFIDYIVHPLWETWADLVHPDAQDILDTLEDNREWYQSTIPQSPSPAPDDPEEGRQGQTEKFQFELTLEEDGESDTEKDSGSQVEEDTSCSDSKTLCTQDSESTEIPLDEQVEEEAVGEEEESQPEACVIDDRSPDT

D(1A) dopamine receptor = D(1A) dopamine receptor (Homo sapiens, UniProt P21728); format: functional, cell-based
Chain of D(1A) dopamine receptor (P21728 whole entry): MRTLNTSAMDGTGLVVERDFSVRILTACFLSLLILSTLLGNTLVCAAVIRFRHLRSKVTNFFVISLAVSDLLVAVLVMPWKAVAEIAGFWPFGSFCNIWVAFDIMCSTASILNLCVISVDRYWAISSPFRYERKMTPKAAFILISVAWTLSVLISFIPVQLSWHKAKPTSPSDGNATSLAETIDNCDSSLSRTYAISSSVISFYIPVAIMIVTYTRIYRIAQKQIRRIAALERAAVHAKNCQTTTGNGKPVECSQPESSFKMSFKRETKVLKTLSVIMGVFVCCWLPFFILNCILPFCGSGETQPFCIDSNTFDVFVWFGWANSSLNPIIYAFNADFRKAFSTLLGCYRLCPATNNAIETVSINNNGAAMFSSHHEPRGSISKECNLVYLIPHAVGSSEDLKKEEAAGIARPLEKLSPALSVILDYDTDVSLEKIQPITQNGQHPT

[10] = target: Sodium-dependent noradrenaline transporter (Homo sapiens, UniProt P23975)
Chain of Sodium-dependent noradrenaline transporter (P23975 whole entry): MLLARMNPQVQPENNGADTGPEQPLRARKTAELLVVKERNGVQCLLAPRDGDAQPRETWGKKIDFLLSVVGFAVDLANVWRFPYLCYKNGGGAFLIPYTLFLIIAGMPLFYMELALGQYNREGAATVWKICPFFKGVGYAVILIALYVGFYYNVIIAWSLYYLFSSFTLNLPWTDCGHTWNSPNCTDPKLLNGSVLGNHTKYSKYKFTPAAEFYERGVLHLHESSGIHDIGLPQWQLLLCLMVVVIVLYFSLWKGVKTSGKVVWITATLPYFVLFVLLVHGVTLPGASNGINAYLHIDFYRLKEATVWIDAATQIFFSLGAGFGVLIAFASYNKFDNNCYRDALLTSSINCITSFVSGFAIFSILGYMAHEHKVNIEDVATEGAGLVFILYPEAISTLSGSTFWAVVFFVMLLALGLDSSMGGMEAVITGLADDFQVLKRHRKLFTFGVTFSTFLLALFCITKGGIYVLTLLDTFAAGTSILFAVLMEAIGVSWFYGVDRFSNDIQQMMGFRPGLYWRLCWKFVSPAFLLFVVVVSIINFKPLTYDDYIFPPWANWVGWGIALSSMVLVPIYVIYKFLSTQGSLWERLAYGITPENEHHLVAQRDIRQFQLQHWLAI
Further: assay procedure not described here.

Chain of Gamma-aminobutyric acid receptor subunit alpha-1 (P62813 whole entry): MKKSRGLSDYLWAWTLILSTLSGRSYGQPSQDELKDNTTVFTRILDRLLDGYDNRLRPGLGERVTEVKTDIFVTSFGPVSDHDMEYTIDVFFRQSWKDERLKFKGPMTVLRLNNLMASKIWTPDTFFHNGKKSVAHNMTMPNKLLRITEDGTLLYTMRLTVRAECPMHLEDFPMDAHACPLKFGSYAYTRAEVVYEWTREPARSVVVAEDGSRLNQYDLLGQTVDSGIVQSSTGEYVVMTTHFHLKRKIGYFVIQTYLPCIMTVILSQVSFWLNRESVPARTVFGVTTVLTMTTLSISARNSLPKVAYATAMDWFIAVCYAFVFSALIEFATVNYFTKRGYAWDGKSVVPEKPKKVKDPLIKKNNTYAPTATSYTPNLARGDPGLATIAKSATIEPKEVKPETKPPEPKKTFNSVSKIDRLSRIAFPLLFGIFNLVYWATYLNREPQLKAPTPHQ

Question: How did the AC50 [1] turn out when `CC(N)Cc1ccccc1` (stereo not drawn) [AMPHETAMINE] was run?
Answer: > 30 µM

Question: And the AC50 [2]?
Answer: > 30 µM

Question: What about the AC50 [3] of the same compound?
Answer: > 30 µM

Question: What about the AC50 [4] of the same compound?
Answer: > 30 µM

Question: And the AC50 [5]?
Answer: > 30 µM

Question: And the AC50 [6]?
Answer: > 30 µM

Question: And the AC50 [7]?
Answer: > 30 µM

Question: What about the AC50 [8] of the same compound?
Answer: > 30 µM

Question: And the AC50 [9]?
Answer: > 30 µM

Question: Which AC50 [4] does the source give for `O=C1[C@H](CC[C@H](O)c2ccc(F)cc2)[C@@H](c2ccc(O)cc2)N1c1ccc(F)cc1` [EZETIMIBE] here?
Answer: 16 µM

Question: What does the source list for `C#C[C@]1(O)CC[C@H]2[C@@H]3CCc4cc(O)ccc4[C@H]3CC[C@@]21C` [ETHINYL ESTRADIOL]?
Answer: AC50 (D(1A) dopamine receptor): > 10 µM; AC50 [1]: > 10 µM; AC50 [2]: > 30 µM; AC50 [3]: > 30 µM; AC50 [4]: > 30 µM; AC50 [5]: 5.7 µM; AC50 [6]: > 10 µM; AC50 [7]: > 10 µM; AC50 [8]: > 10 µM; AC50 [9]: 16 µM

Question: For `CCOC(=O)c1ccc(O)cc1` [ETHYLPARABEN], which AC50 [4] is on record?
Answer: > 30 µM

Question: Which AC50 (D(1A) dopamine receptor) does the source give for `CN1CCCC(n2nc(Cc3ccc(Cl)cc3)c3ccccc3c2=O)CC1` (stereo not drawn) [AZELASTINE] here?
Answer: > 30 µM

Question: And the AC50 [1]?
Answer: > 30 µM

Question: What about the AC50 [3] of the same compound?
Answer: 14 µM

Question: And the AC50 [5]?
Answer: > 30 µM

Question: What about the AC50 [6] of the same compound?
Answer: > 30 µM

Question: What about the AC50 [7] of the same compound?
Answer: > 30 µM

Question: What about the AC50 [9] of the same compound?
Answer: > 30 µM

Question: What about the AC50 [10] of the same compound?
Answer: 4.7 µM

Question: `Cc1c(-c2ccccc2)oc2c(C(=O)OCCN3CCCCC3)cccc2c1=O` [FLAVOXATE] was tested. Which AC50 [4] did it give?
Answer: 3.8 µM

Question: Which AC50 [4] does the source give for `Sc1ncnc2nc[nH]c12` [MERCAPTOPURINE ANHYDROUS] here?
Answer: > 30 µM

Question: For `Cc1ccc(O)c2ncccc12` [TILIQUINOL], which AC50 [4] is on record?
Answer: > 30 µM

Question: For `CC(C)OC(=O)[C@H](C)N[P@](=O)(OC[C@H]1O[C@@H](n2ccc(=O)[nH]c2=O)[C@](C)(F)[C@@H]1O)Oc1ccccc1` [SOFOSBUVIR], which AC50 [4] is on record?
Answer: > 30 µM

Question: For `CC(=O)OC[C@H]1O[C@@H](n2ccc(=O)[nH]c2=O)[C@H](OC(C)=O)[C@@H]1OC(C)=O` [URIDINE TRIACETATE], which AC50 [4] is on record?
Answer: > 30 µM

Question: Which results are given for `Cc1cccc(C)c1OCC(C)N` (stereo not drawn) [MEXILETINE]?
Answer: AC50 (D(1A) dopamine receptor): > 30 µM; AC50 [3]: > 30 µM; AC50 [4]: > 30 µM; AC50 [5]: > 30 µM; AC50 [6]: 18 µM; AC50 [7]: > 30 µM; AC50 [8]: > 30 µM; AC50 [9]: > 30 µM; AC50 [10]: > 30 µM

Question: Which AC50 [4] does the source give for `CN1CCCC(CN2c3ccccc3Sc3ccccc32)C1` (stereo not drawn) [MEPAZINE] here?
Answer: 3.77 µM

Question: For `CCO/N=C(\C(=O)N[C@@H]1C(=O)N2C(C(=O)[O-])=C(Sc3nc(-c4cc[n+](C)cc4)cs3)CS[C@H]12)c1nsc(N)n1` [CEFTAROLINE], which AC50 [4] is on record?
Answer: 26 µM

Question: Which AC50 [4] does the source give for `CCOC(=O)N[C@@H]1CC[C@@H]2[C@@H](C1)C[C@H]1C(=O)O[C@H](C)[C@H]1[C@H]2/C=C/c1ccc(-c2cccc(F)c2)cn1` [VORAPAXAR] here?
Answer: 3.9 µM

Question: With `CC(O)CO` (stereo not drawn) [PROPYLENE GLYCOL] as the compound, how does the AC50 [4] read?
Answer: > 30 µM

Question: For `COc1cc2c(cc1OC)C(=O)C(CC1CCN(Cc3ccccc3)CC1)C2` (stereo not drawn) [DONEPEZIL], which AC50 (D(1A) dopamine receptor) is on record?
Answer: > 10 µM

Question: And the AC50 [1]?
Answer: > 10 µM

Question: What about the AC50 [2] of the same compound?
Answer: > 30 µM

Question: What about the AC50 [3] of the same compound?
Answer: > 30 µM

Question: And the AC50 [7]?
Answer: > 10 µM

Question: What about the AC50 [9] of the same compound?
Answer: > 30 µM

Question: And the AC50 [10]?
Answer: 6.1 µM

Question: Which AC50 (D(1A) dopamine receptor) does the source give for `O=C(NC[C@H]1CN(c2ccc(N3CCOCC3=O)cc2)C(=O)O1)c1ccc(Cl)s1` [RIVAROXABAN] here?
Answer: > 30 µM

Question: What about the AC50 [1] of the same compound?
Answer: > 30 µM

Question: And the AC50 [2]?
Answer: > 30 µM

Question: And the AC50 [5]?
Answer: > 30 µM

Question: What about the AC50 [6] of the same compound?
Answer: > 30 µM

Question: And the AC50 [7]?
Answer: > 30 µM

Question: What about the AC50 [8] of the same compound?
Answer: > 30 µM

Question: What about the AC50 [9] of the same compound?
Answer: > 30 µM

Question: What about the AC50 [10] of the same compound?
Answer: > 30 µM
